Experimental data published in patent US20110009264A1, “HERBICIDAL COMBINATION” (Bayer CropScience AG, priority 2007, published 2011).

Assays:
Polygonum convolvulus = experiment: Post-emergence action against weeds, greenhouse, visual scoring of control; format: in vivo; conditions: 11 days after application
Experimental: (§1) Seeds or rhizome pieces of monocotyledonous and dicotyledonous weeds were placed in sandy loam soil in plastic pots, covered with soil and cultivated in a greenhouse under good growth conditions. Three weeks after sowing, the test plants were treated at the 2- to 4-leaf stage. The compounds according to the invention, formulated as wettable powders or as emulsion concentrates, were sprayed onto the green parts of the plants in various dosages at a water application rate of 100 to 800 l/ha (converted).
(§2) 0%=no control 100%=complete control

Veronica persica = experiment: as above; format: in vivo; conditions: 11 days after application
Experimental: as §1, with “(converted). After the test plants had been left to stand in the greenhouse for 10 to 28 days under optimum growth conditions, the effect of the preparations was scored visually in comparison to untreated controls.” for “(converted).”
as §2

## COc1c(Cl)ccc(Cl)c1C(=O)O [Compound B1-1, dicamba]
Polygonum convolvulus; 100 g of ai/ha
  Polygonum convolvulus Control in %: 40%

## Nc1c(Cl)c(F)nc(OCC(=O)O)c1Cl [Compound B2-2, fluoroxypyr]
Veronica persica; 80 g of ai/ha
  Veronica persica Control in %: 60%

## sodium salt of 2-iodo-N-[(4-methoxy-6-methyl-1,3,5-triazin-2-yl)carbamoyl]benzenesulfonamide [Compound A-2]
Veronica persica; 2.5 g of ai/ha, 0%=no control, 100%=complete control
  Veronica persica Control in %: 0%

## O=C(O)c1nc(Cl)ccc1Cl [Compound B2-1, clopyralid]
Veronica persica; 50 g of ai/ha
  Veronica persica Control in %: 0%

## Nc1nc(C2CC2)nc(C(=O)[O-])c1Cl.[K+] [Compound B6-1, aminocyclopyrachlor]
Polygonum convolvulus; 25 g of ai/ha
  Polygonum convolvulus Control in %: 60%

## Nc1c(Cl)c(Cl)nc(C(=O)O)c1Cl [Compound B2-4, picloram]
Polygonum convolvulus; 80 g of ai/ha
  Polygonum convolvulus Control in %: 20%
